Reference: article PMC3234597, “Two Panels of Steroid Receptor Luciferase Reporter Cell Lines for Compound Profiling” (Combinatorial Chemistry & High Throughput Screening, 2011)
Entries after “also recorded” stand apart in the source; their conditions may differ. Read-outs that look alike come from different tables or passages of the source.

Assays:
Assay type in all cases: cell-based
[1] = biological target: T1, GR-LBD fused to Gal4-DBD (Homo sapiens, UniProt P04150); assay: U2OS-GR-LBD/9xGal4UAS luciferase reporter cell line; conditions: for Log EC50: agonist mode, 20 h, log10 of molar EC50, mean ± SEM; for Log EC50 / Log IC50: GR-LBD/9xGal4UAS; for Log IC50: antagonist mode, in the presence of 5 nM dexamethasone, log10 of molar IC50, mean ± SEM
T1 construct: expressed in transfected cells; host or cells: U2OS
T1 sequence (P04150 524-758 limits assumed): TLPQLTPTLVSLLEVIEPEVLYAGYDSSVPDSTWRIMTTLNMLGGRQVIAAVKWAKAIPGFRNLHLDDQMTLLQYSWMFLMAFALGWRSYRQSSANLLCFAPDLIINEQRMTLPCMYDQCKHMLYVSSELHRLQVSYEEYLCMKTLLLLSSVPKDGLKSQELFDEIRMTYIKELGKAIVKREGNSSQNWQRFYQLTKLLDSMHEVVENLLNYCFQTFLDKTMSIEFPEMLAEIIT

[2] = biological target: T2, human MR (full-length) (Homo sapiens, UniProt P08235); assay: U2OS-MR/MMTV luciferase reporter cell line (full-length receptor); conditions: for Log EC50: agonist mode, 20 h, log10 of molar EC50, mean ± SEM; for Log EC50 / Log IC50: MR/MMTV; for Log IC50: in the presence of 1 nM aldosterone, log10 of molar IC50, mean ± SEM
T2 construct: expression vectors encoding full-length steroid receptors: pcDNA3-hAR, pcDNA3-hGR and pcDNA3-hMR; expressed in transfected cells; host or cells: U2OS
T2 sequence (P08235 1-984): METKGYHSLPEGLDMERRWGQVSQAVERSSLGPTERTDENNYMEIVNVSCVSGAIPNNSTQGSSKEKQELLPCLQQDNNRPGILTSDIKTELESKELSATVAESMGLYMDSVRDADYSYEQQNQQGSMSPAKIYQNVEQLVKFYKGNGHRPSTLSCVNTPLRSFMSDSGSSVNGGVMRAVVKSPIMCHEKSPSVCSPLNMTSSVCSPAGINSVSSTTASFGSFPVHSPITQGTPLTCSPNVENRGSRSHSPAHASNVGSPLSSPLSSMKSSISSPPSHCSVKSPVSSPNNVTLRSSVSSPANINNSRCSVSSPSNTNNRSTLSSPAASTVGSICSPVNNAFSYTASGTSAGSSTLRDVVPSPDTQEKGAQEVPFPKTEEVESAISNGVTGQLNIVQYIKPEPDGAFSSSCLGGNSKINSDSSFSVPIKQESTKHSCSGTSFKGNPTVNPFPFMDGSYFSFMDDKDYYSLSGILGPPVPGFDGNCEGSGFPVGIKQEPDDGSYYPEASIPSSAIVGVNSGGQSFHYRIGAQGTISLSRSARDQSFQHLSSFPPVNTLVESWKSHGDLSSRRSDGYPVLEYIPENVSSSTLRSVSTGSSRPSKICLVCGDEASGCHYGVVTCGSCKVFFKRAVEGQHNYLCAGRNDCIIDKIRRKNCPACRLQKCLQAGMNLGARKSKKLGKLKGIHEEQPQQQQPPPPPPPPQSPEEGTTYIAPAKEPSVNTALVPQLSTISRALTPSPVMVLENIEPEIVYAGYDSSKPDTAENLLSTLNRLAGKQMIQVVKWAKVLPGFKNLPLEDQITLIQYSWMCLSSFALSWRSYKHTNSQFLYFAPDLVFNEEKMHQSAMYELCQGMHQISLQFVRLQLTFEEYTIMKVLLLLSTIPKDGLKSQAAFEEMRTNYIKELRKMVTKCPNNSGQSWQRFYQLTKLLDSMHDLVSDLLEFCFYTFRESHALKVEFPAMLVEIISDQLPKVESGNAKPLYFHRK

[3] = biological target: T3, AR-LBD fused to Gal4-DBD (co-expressed with full-length AR) (Homo sapiens, UniProt P10275); assay: U2OS-AR-LBD/9xGal4UAS luciferase reporter cell line; conditions: for Log EC50: agonist mode, AR-LBD/9xGal4UAS, 20 h, log10 of molar EC50, mean ± SEM
T3 construct: the following primers were used for the amplification of the LBD region; expressed in transfected cells; host or cells: U2OS
T3 sequence (P10275 669-900 limits assumed): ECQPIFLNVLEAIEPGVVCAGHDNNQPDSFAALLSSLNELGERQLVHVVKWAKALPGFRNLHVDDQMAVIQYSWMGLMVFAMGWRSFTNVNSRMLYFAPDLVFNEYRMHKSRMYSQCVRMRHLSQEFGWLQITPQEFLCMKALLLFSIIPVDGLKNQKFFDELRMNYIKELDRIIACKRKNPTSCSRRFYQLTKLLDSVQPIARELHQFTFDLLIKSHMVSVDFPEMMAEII

[4] = biological target: T4, MR-LBD fused to Gal4-DBD (Homo sapiens, UniProt P08235); assay: U2OS-MR-LBD/9xGal4UAS luciferase reporter cell line; conditions: for Log EC50: agonist mode, 20 h, log10 of molar EC50, mean ± SEM; for Log EC50 / Log IC50: MR-LBD/9xGal4UAS; for Log IC50: antagonist mode, in the presence of 1 nM aldosterone, log10 of molar IC50, mean ± SEM
T4 construct: MR-LBD was cloned by RT-PCR from total RNA isolated from HEK293 cells; expressed in transfected cells; host or cells: U2OS
T4 sequence (P08235 726-964 limits assumed): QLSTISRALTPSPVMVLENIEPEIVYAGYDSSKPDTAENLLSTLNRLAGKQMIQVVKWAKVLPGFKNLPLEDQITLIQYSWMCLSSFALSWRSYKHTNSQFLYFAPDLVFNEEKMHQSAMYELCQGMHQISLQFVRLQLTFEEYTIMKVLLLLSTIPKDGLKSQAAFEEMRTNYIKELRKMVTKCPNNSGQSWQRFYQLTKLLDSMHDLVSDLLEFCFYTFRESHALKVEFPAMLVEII

[5] = biological target: T5, human ERβ (full-length) (Homo sapiens, UniProt Q92731); assay: U2OS-ERβ/3xERE luciferase reporter cell line (full-length receptor); conditions: for EC50: read-out: Log EC50 (converted)
T5 construct: expression vectors encoding full-length steroid receptors: pcDNA3-hERα and pcDNA3-ERβ; expressed in transfected cells; host or cells: U2OS
T5 sequence (Q92731 whole entry): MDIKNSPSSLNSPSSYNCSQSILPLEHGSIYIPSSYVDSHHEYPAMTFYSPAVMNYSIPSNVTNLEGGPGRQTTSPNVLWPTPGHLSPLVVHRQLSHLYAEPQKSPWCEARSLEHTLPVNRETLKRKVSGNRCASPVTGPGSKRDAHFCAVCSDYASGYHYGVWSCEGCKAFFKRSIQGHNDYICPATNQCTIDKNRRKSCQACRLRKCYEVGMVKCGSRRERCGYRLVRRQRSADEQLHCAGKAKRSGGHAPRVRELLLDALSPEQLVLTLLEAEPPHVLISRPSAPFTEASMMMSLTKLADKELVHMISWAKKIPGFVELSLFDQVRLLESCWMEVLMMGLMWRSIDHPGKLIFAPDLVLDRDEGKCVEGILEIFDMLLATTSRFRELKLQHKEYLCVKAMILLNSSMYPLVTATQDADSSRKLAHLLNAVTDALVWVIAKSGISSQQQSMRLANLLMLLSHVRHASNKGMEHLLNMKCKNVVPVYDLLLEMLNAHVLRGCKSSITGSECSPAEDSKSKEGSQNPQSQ

[6] = biological target: T6, ERα^wt-LBD fused to Gal4-DBD (Homo sapiens, UniProt P03372); assay: U2OS-ERα^wt-LBD/9xGal4UAS luciferase reporter cell line
T6 construct: ERα-LBD (amino acids 303-595) based on GenBank NM_000125; expressed in transfected cells; host or cells: U2OS
T6 sequence (P03372 303-595): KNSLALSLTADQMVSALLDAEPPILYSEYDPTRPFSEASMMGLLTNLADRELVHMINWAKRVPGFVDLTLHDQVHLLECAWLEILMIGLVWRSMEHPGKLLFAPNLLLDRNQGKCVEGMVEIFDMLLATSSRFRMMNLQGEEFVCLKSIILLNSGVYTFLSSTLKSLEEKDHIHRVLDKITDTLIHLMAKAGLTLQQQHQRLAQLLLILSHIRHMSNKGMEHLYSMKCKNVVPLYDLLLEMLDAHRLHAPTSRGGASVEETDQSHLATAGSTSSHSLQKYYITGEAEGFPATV

## C[C@]12CC[C@@H]3c4ccc(O)cc4C[C@@H](CCCCCCCCC[S+]([O-])CCCC(F)(F)C(F)(F)F)[C@H]3[C@@H]1CC[C@@H]2O (stereo partly shown) [ICI 182.780]
[1]
  Log EC50: > -5.00 M
  Log IC50: > -5.00 M
[2]
  Log EC50: > -5.00 M
[2]; antagonist mode
  Log IC50: > -5.00 M
[3]
  Log IC50: > -5.00 M
  Log EC50: > -5.00 M
[4]
  Log EC50: > -5.00 M
  Log IC50: > -5.00 M

## CCC(=O)[C@@]1(C)CC[C@H]2[C@@H]3CCC4=CC(=O)CCC4=C3CC[C@@]21C [Promegestone (R5020), promegestone]
[1]; read-out: Log EC50 (converted)
  EC50: > 10 µM
[2]; read-out: Log EC50 (converted)
  EC50: > 10 µM
[5]
  EC50: > 10 µM
[3]
  EC50: > 10 µM
  IC50: 0.407 µM
[4]; read-out: Log EC50 (converted)
  EC50: > 10 µM
[6]
  EC50: > 10 µM

## C#C[C@]1(O)CC[C@H]2[C@@H]3CCC4=Cc5oncc5C[C@]4(C)[C@H]3CC[C@@]21C [Danazol, danazol]
[1]; read-out: Log EC50 (converted)
  EC50: > 10 µM
[2]; read-out: Log EC50 (converted)
  EC50: > 10 µM
[5]
  EC50: > 10 µM
[4]; read-out: Log EC50 (converted)
  EC50: > 10 µM
[6]
  EC50: 0.245 µM

## C[C@H]1C[C@H]2[C@@H]3CCC4=CC(=O)C=C[C@]4(C)[C@@]3(Cl)[C@@H](O)C[C@]2(C)[C@@]1(O)C(=O)CO [Beclomethasone, beclomethasone]
[2]
  Log EC50: -7.97 ± 0.12 M
[2]; antagonist mode
  Log IC50: > -5.00 M
[2]; full-length MR format, antagonist mode
  activity profile in words: no sign of antagonistic activity
[4]; MR-LBD expressing reporter cell line, agonist and antagonist mode
  activity profile in words: only weakly and partially activated; also recorded: pronounced full antagonist effect
[4]
  Log EC50: -7.95 ± 0.10 M
  Log IC50: -7.64 ± 0.10 M
[6]; agonist mode, ERα^wt-LBD/9xGal4UAS, 20 h, log10 of molar EC50, mean ± SEM
  Log EC50: > -5.00 M
[6]; antagonist mode, ERα^wt-LBD/9xGal4UAS, in the presence of 1 nM E2, log10 of molar IC50, mean ± SEM
  Log IC50: > -5.00 M

## CC[C@@H]1Cc2cc(O)ccc2C2=C1c1ccc(O)cc1C[C@H]2CC (relative stereo) [R.R-THC, (R,R)-cis-diethyltetrahydro-2,8-chrysenediol]
[1]
  Log EC50: > -5.00 M
  Log IC50: > -5.00 M
[2]
  Log EC50: > -5.40 M
[2]; antagonist mode
  Log IC50: -5.45 ± 0.22 M
[5]; agonist mode, ERβ/3xERE, 20 h, log10 of molar EC50, mean ± SEM
  Log EC50: > -5.00 M
[5]; antagonist mode, ERβ/3xERE, in the presence of 1 nM E2, log10 of molar IC50, mean ± SEM
  Log IC50: -7.30 ± 0.14 M
[3]
  Log IC50: > -5.500 M
  Log EC50: > -5.00 M
[4]
  Log EC50: > -5.00 M
  Log IC50: -5.08 ± 0.13 M

## O=c1c(-c2ccc(O)cc2)coc2cc(O)cc(O)c12 [Genistein, genistein]
[1]
  EC50: > 10 µM
[2]
  EC50: > 10 µM
[3]
  EC50: > 10 µM
[4]
  EC50: > 10 µM

## C[C@]12C[C@H](O)[C@H]3[C@@H](CCC4=CC(=O)CC[C@@]43C)[C@@H]1CC[C@@H]2C(=O)CO [Corticosterone, corticosterone]
[1]; read-out: Log EC50 (converted)
  EC50: 0.269 µM
[2]; read-out: Log EC50 (converted)
  EC50: 8.13e-05 µM
[5]
  EC50: > 10 µM
[4]; read-out: Log EC50 (converted)
  EC50: 2.63e-05 µM
[6]
  EC50: > 10 µM

## CCCc1c(-c2ccc(O)cc2)nn(-c2ccc(O)cc2)c1-c1ccc(O)cc1 [PPT, propyl pyrazole triol]
[1]; read-out: Log EC50 (converted)
  EC50: > 10 µM
[2]; read-out: Log EC50 (converted)
  EC50: > 10 µM
[5]
  EC50: > 10 µM
[3]
  EC50: > 10 µM
[4]; read-out: Log EC50 (converted)
  EC50: > 10 µM
[6]
  EC50: 0.0024 µM

## C[C@]12CCC(=O)C=C1CC[C@@H]1[C@@H]2[C@@H](O)C[C@]2(C=O)[C@@H](C(=O)CO)CC[C@@H]12 [Aldosterone, aldosterone]
[1]; read-out: Log EC50 (converted)
  EC50: 1.15 µM
[5]
  EC50: > 10 µM
[3]
  EC50: > 10 µM
[6]
  EC50: > 10 µM

## C[C@]12C=CC(=O)C=C1CC[C@H]1[C@@H]3C[C@@H](O)[C@](O)(C(=O)CO)[C@@]3(C)C[C@H](O)[C@@]12F [Triamcinolone, triamcinolone]
[1]; read-out: Log EC50 (converted)
  EC50: 0.0102 µM
[2]; read-out: Log EC50 (converted)
  EC50: 0.186 µM
[4]; read-out: Log EC50 (converted)
  EC50: 0.0759 µM
[6]
  EC50: > 10 µM
